Patent US9079930B2, “Substituted pyrimidines” (MERCK SHARP & DOHME CORP., priority 2011, dated 2015)
pIC50: −log10 of the molar value.

Target: T1, FLAG-tagged full length PHD2 (Homo sapiens, UniProt Q9GZT9)
T1 construct: FLAG-tagged full length PHD2 expressed in and purified from baculovirus-infected Sf9 cells; FLAG; made in house; host or cells: baculovirus-infected Sf9 cells
Assay: PHD2 inhibition assay (time resolved fluorescence, HIF-1α peptide hydroxylation, VHL complex detection)
Type: biochemical
Settings: 0.2 μM 2-oxoglutarate, 0.5 μM HIF-1α peptide
Description: To each well of a 96-well plate was added 1 μL of test compound in DMSO and 20 μl of assay buffer (50 mM Tris pH 7.4/0.01% Tween-20/0.1 mg/ml bovine serum albumin/10 μM ferrous sulfate/i mM sodium ascorbate/20 μg/ml catalase) containing 0.15 μg/ml FLAG-tagged full length PHD2 expressed in and purified from baculovirus-infected Sf9 cells. After a 30 min preincubation at room temperature, the enzymatic reactions were initiated by the addition of 4 μL of substrates (final concentrations of 0.2 μM 2-oxoglutarate and 0.5 μM HIF-1α peptide biotinyl-DLDLEMLAPYIPMDDDFQL (SEQ ID NO: 1)). After 2 hr at room temperature, the reactions were terminated and signals were developed by the addition of a 25 μL quench/detection mix to a final concentration of 1 mM ortho-phenanthroline, 0.1 mM EDTA, 0.5 nM anti-(His)6 LANCE reagent (Perkin-Elmer Life Sciences), 100 nM AF647-labeled streptavidin (Invitrogen), and 2 μg/ml (His)6-VHL complex (S. Tan (2001) Protein Expr. Purif. 21, 224-234). The ratio of time resolved fluorescence signals at 665 and 620 nm was determined, and percent inhibition was calculated relative to an uninhibited control sample run in parallel.

T1 sequence (Q9GZT9 whole entry): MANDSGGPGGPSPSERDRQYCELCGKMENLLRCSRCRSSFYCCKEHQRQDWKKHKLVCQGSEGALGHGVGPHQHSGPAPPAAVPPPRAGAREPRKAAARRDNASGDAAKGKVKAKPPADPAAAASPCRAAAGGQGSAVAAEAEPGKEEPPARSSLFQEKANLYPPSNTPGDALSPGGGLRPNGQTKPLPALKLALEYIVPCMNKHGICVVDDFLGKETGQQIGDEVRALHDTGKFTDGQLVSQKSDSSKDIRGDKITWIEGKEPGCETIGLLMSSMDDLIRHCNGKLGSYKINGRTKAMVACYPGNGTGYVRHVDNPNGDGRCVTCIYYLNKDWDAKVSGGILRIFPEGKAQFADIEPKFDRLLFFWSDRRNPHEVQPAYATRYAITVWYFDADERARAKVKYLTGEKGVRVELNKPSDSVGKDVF

pIC50, 7.00 to 7.70:
COc1ccc(C(NC(=O)c2cnc(-c3cccnn3)nc2O)P(=O)(O)O)cc1 (stereo not drawn) [Compound 36-1, (4-Hydroxy-2-(pyridazin-3-yl)pyrimidine-5-carboxamido)(4-methoxyphenyl)methyl phosphonic acid]

pIC50, 7.70 to 9.30:
COc1ccc(C(NC(=O)c2cnc(-c3cccnn3)nc2O)P(=O)(O)O)cc1 (stereo not drawn) [Compound 30-2, (4-Hydroxy-2-(pyridazin-3-yl)pyrimidine-5-carboxamido)(4-methoxyphenyl)methyl phosphonic acid]
O=C(NC(c1ccc2ccccc2c1)P(=O)(O)O)c1cnc(-c2cccnn2)nc1O (stereo not drawn) [Compound 30-3, (4-Hydroxy-2-(pyridazin-3-yl)pyrimidine-5-carboxamido)(naphthalen-2-yl)methyl phosphonic acid]
CCOC(=O)CNP(=O)(NCC(=O)OCC)c1ccc(C(NC(=O)c2cnc(-c3cccnn3)nc2O)c2ccc(OC)cc2)cc1 (stereo not drawn) [Compound 31-1, Diethyl 2,2′-((4-((4-hydroxy-2-(pyridazin-3-yl)pyrimidine-5-carboxamido)(4-methoxyphenyl)methyl)phenyl)phosphoryl)bis(azanediyl)diacetate]
CCOC(=O)[C@H](C)NP(=O)(N[C@@H](C)C(=O)OCC)c1ccc(C(NC(=O)c2cnc(-c3cccnn3)nc2O)c2ccc(OC)cc2)cc1 (stereo partly drawn) [Compound 31-2, (2S,2′S)-Diethyl 2,2′-((4-((4-hydroxy-2-(pyridazin-3-yl)pyrimidine-5-carboxamido)(4-methoxyphenyl)methyl)phenyl)phosphoryl)bis(azanediyl)dipropanoate]
COc1ccc(C(NC(=O)c2cnc(-c3cccnn3)nc2O)c2ccc(CP(=O)(O)O)cc2)cc1 (stereo not drawn) [Compound 32-1, 4-((4-hydroxy-2-(pyridazin-3-yl)pyrimidine-5-carboxamido)(4-methoxyphenyl)methyl)benzylphosphonic acid]
CC(C)(NC(=O)c1cnc(-c2cccnn2)nc1O)c1ccc(-c2ccc(P(=O)(O)O)cc2)nc1 [Compound 33-1, 4-(5-(2-(4-hydroxy-2-(pyridazin-3-yl)pyrimidine-5-carboxamido)propan-2-yl)pyridine-2-yl)phenylphosphonic acid]
COc1ccc(C(NC(=O)c2cnc(-c3cccnn3)nc2O)c2cccc(P(=O)(O)O)c2)cc1 (stereo not drawn) [Compound 34-1, 3-((4-hydroxy-2-(pyridazin-3-yl)pyrimidine-5-carboxamido)(4-methoxyphenyl)methyl)phenylphosphonic acid]

pIC50, 5.00 to 7.00:
O=C(Cc1cccc(P(=O)(O)O)c1)Nc1cnc(-c2cccnn2)nc1O [Compound 35-1, 3-(2-(4-hydroxy-2-(pyridazin-3-yl)pyrimidin-5-ylamino)-2-oxoethyl)phenyl phosphonic acid]
